What was measured:
Assay in all cases: NCI-60 SRB screen
Type in all cases: cell-based
[1] = test system: SF-539
Excerpt: (§1) Supplementary Figure l egend
(§2) 10μ M of CTR-20 was used to examine the drug’s efficac y against the NC I-60 cancer cell li nes including: six leukemia cell lines, nine non- small cell lung cancer cell lines, seven color ect al cancer cell lines, six CNS cancer cell lines, nine melanoma cell lines, seven ovari an can cer cell lines, seven ren al can cer cell lines, two prostate cancer cell lines and six breast cancer cell lines. The scr eenin g was car r ied out b y the US National Cancer Institute (NC I) us i n g a sulforhodamine B (SRB) colorimetric assay. […]
(§3) out by the NC I using five different doses of CTR -20.

[2] = test system: UO-31
Excerpt: as §1, §2, §3

[3] = test system: NCI-H322M
Excerpt: as §1, §2, §3

[4] = test system: TK-10
Excerpt: as §1, §2, §3

[5] = test system: K-562
Excerpt: as §1, §2, §3

[6] = test system: SF-268
Excerpt: as §1, §2, §3

[7] = test system: KM12
Excerpt: as §1, §2, §3

[8] = test system: NCI/ADR-RES
Excerpt: as §1, §2, §3

[9] = test system: SK-MEL-5
Excerpt: as §1, §2, §3

[10] = test system: SW-620
Excerpt: as §1, §2, §3

[11] = test system: HT29
Excerpt: as §1, §2, §3

[12] = test system: PC-3
Excerpt: as §1, §2, §3

[13] = Homo sapiens, read-out: LC50 (the source's name)

SMILES: COc1ccc2[nH]c(=O)c(/C=C/C(=O)c3ccccc3OC)cc2c1 [CTR-20, (E)-6-Methoxy-3-(3-(2-methoxyphenyl)-3-oxoprop-1-enyl) quinolin-2(1H)-one]
- Log10GI50 [1]: -6.35 Molar
- Log10LC50 [1]: -4.87 Molar
- Log10TGI [1]: -5.60 Molar
- TGI [1]: 2.49E-6 Molar
- Growth Percent ([1]; 1.00E-5 Molar): -10.00%
- GI50 ([1]; Homo sapiens): 443 nM
- LC50 (concentration killing 50% of starting cells) ([1]; Homo sapiens): 13400 nM
- Percent Growth ([1]; Log10 Concentration -4.0): -99%
- Percent Growth ([1]; Log10 Concentration -5.0): -43%
- Percent Growth ([1]; Log10 Concentration -6.0): 28%
- Percent Growth ([1]; Log10 Concentration -7.0): 90%
- Percent Growth ([1]; Log10 Concentration -8.0): 90%
- Log10GI50 [2]: -6.02 Molar
- Log10LC50 [2]: -5.28 Molar
- Log10TGI [2]: -5.64 Molar
- TGI [2]: 2.28E-6 Molar
- Growth Percent ([2]; 1.00E-5 Molar): 23.62%
- GI50 ([2]; Homo sapiens): 958 nM
- CC50 [2, 13]: 5270 nM
- Percent Growth ([2]; Log10 Concentration -4.0): -100%
- Percent Growth ([2]; Log10 Concentration -5.0): -88%
- Percent Growth ([2]; Log10 Concentration -6.0): 49%
- Percent Growth ([2]; Log10 Concentration -7.0): 81%
- Percent Growth ([2]; Log10 Concentration -8.0): 87%
- Log10GI50 [3]: -5.62 Molar
- Log10LC50 [3]: -4.48 Molar
- Log10TGI [3]: -4.98 Molar
- TGI [3]: 1.04E-5 Molar
- Growth Percent ([3]; 1.00E-5 Molar): 18.31%
- GI50 ([3]; Homo sapiens): 2400 nM
- CC50 [3, 13]: 33500 nM
- Percent Growth ([3]; Log10 Concentration -4.0): -97%
- Percent Growth ([3]; Log10 Concentration -5.0): 2%
- Percent Growth ([3]; Log10 Concentration -6.0): 80%
- Percent Growth ([3]; Log10 Concentration -7.0): 93%
- Percent Growth ([3]; Log10 Concentration -8.0): 94%
- Log10GI50 [4]: -5.64 Molar
- Log10LC50 [4]: -4.44 Molar
- Log10TGI [4]: -4.88 Molar
- TGI [4]: 1.31E-5 Molar
- Growth Percent ([4]; 1.00E-5 Molar): 42.01%
- GI50 ([4]; Homo sapiens): 2310 nM
- CC50 [4, 13]: 36400 nM
- Percent Growth ([4]; Log10 Concentration -4.0): -99%
- Percent Growth ([4]; Log10 Concentration -5.0): 13%
- Percent Growth ([4]; Log10 Concentration -6.0): 71%
- Percent Growth ([4]; Log10 Concentration -7.0): 93%
- Percent Growth ([4]; Log10 Concentration -8.0): 91%
- Log10GI50 [5]: -6.79 Molar
- Log10LC50 [5]: > -4.00 Molar
- Log10TGI [5]: > -4.00 Molar
- TGI [5]: > 1.00E-4 Molar
- Growth Percent ([5]; 1.00E-5 Molar): 4.24%
- GI50 ([5]; Homo sapiens, K562): 162 nM
- CC50 ([5]; Homo sapiens, K562, read-out: LC50 (the source's name)): > 100000 nM
- Percent Growth ([5]; Log10 Concentration -4.0): 4%
- Percent Growth ([5]; Log10 Concentration -5.0): 6%
- Percent Growth ([5]; Log10 Concentration -6.0): 11%
- Percent Growth ([5]; Log10 Concentration -7.0): 61%
- Percent Growth ([5]; Log10 Concentration -8.0): 101%
- Log10GI50 [6]: -6.16 Molar
- Log10LC50 [6]: -4.15 Molar
- Log10TGI [6]: -4.98 Molar
- TGI [6]: 1.05E-5 Molar
- Growth Percent ([6]; 1.00E-5 Molar): 9.36%
- GI50 ([6]; Homo sapiens): 690 nM
- CC50 [6, 13]: 70400 nM
- Percent Growth ([6]; Log10 Concentration -4.0): -59%
- Percent Growth ([6]; Log10 Concentration -5.0): 1%
- Percent Growth ([6]; Log10 Concentration -6.0): 42%
- Percent Growth ([6]; Log10 Concentration -7.0): 93%
- Percent Growth ([6]; Log10 Concentration -8.0): 92%
- Log10GI50 [7]: -6.49 Molar
- Log10LC50 [7]: -5.23 Molar
- Log10TGI [7]: -5.80 Molar
- TGI [7]: 1.58E-6 Molar
- Growth Percent ([7]; 1.00E-5 Molar): 4.37%
- GI50 ([7]; Homo sapiens): 321 nM
- CC50 [7, 13]: 5890 nM
- Percent Growth ([7]; Log10 Concentration -4.0): -86%
- Percent Growth ([7]; Log10 Concentration -5.0): -70%
- Percent Growth ([7]; Log10 Concentration -6.0): 17%
- Percent Growth ([7]; Log10 Concentration -7.0): 84%
- Percent Growth ([7]; Log10 Concentration -8.0): 99%
- Log10GI50 [8]: -6.56 Molar
- Log10LC50 [8]: > -4.00 Molar
- Log10TGI [8]: -4.70 Molar
- TGI [8]: 2.00E-5 Molar
- Growth Percent ([8]; 1.00E-5 Molar): 10.36%
- GI50 ([8]; Homo sapiens): 273 nM
- CC50 [8, 13]: > 100000 nM
- Percent Growth ([8]; Log10 Concentration -4.0): -8%
- Percent Growth ([8]; Log10 Concentration -5.0): 3%
- Percent Growth ([8]; Log10 Concentration -6.0): 14%
- Percent Growth ([8]; Log10 Concentration -7.0): 78%
- Percent Growth ([8]; Log10 Concentration -8.0): 97%
- Log10GI50 [9]: -6.14 Molar
- Log10LC50 [9]: -5.31 Molar
- Log10TGI [9]: -5.68 Molar
- TGI [9]: 2.08E-6 Molar
- Growth Percent ([9]; 1.00E-5 Molar): 25.21%
- GI50 ([9]; Homo sapiens): 728 nM
- CC50 [9, 13]: 4930 nM
- Percent Growth ([9]; Log10 Concentration -4.0): -98%
- Percent Growth ([9]; Log10 Concentration -5.0): -91%
- Percent Growth ([9]; Log10 Concentration -6.0): 43%
- Percent Growth ([9]; Log10 Concentration -7.0): 96%
- Percent Growth ([9]; Log10 Concentration -8.0): 101%
- Log10GI50 [10]: -6.47 Molar
- Log10LC50 [10]: -4.31 Molar
- Log10TGI [10]: -5.65 Molar
- TGI [10]: 2.24E-6 Molar
- Growth Percent ([10]; 1.00E-5 Molar): 8.40%
- GI50 ([10]; Homo sapiens): 335 nM
- LC50 (50% lethal concentration) ([10]; Homo sapiens): 49400 nM
- Percent Growth ([10]; Log10 Concentration -4.0): -58%
- Percent Growth ([10]; Log10 Concentration -5.0): -31%
- Percent Growth ([10]; Log10 Concentration -6.0): 17%
- Percent Growth ([10]; Log10 Concentration -7.0): 87%
- Percent Growth ([10]; Log10 Concentration -8.0): 98%
- Log10GI50 [11]: -6.53 Molar
- Log10LC50 [11]: -4.63 Molar
- Log10TGI [11]: -5.86 Molar
- TGI [11]: 1.37E-6 Molar
- Growth Percent ([11]; 1.00E-5 Molar): 7.17%
- GI50 ([11]; Homo sapiens, HT-29): 293 nM
- LC50 ([11]; Homo sapiens, HT-29): 23700 nM
- Percent Growth ([11]; Log10 Concentration -4.0): -73%
- Percent Growth ([11]; Log10 Concentration -5.0): -36%
- Percent Growth ([11]; Log10 Concentration -6.0): 6%
- Percent Growth ([11]; Log10 Concentration -7.0): 89%
- Percent Growth ([11]; Log10 Concentration -8.0): 98%
- Log10GI50 [12]: -6.07 Molar
- Log10LC50 [12]: -4.59 Molar
- Log10TGI [12]: -5.43 Molar
- TGI [12]: 3.75E-6 Molar
- Growth Percent ([12]; 1.00E-5 Molar): 22.06%
- GI50 ([12]; Homo sapiens): 842 nM
- CC50 [12, 13]: 25900 nM
- Percent Growth ([12]; Log10 Concentration -4.0): -73%
- Percent Growth ([12]; Log10 Concentration -5.0): -34%
- Percent Growth ([12]; Log10 Concentration -6.0): 46%
- Percent Growth ([12]; Log10 Concentration -7.0): 102%
- Percent Growth ([12]; Log10 Concentration -8.0): 104%
